Tests used:
Plasma [1] = test: Anticoagulant potency in citreated human plasma assessed as prolongation of thromboplastin-induced prothrombin time at 20 uM by coagulometer; assay type: functional
Plasma [2] = test: Anticoagulant potency in citreated human plasma assessed as prolongation of thromboplastin-induced prothrombin time at 2 uM by coagulometer; assay type: functional
[3] = target: Prothrombin (Homo sapiens) (UniProt P00734); test: Binding affinity to human thrombin assessed as concentration required to double fibrinogen clotting time by coagulometer

SMILES: Cc1cn(CC(C)(COP(=O)(O)OC[C@H]2O[C@@H](n3cc(C)c(=O)[nH]c3=O)C[C@@H]2OP(=O)(O)OC[C@H]2O[C@@H](n3cnc4c(=O)[nH]c(N)nc43)[C@H](O)[C@@H]2OP(=O)(O)OC[C@H]2O[C@@H](n3cnc4c(=O)[nH]c(N)nc43)[C@H](O)[C@@H]2OP(=O)(O)OC[C@H]2O[C@@H](n3cc(C)c(=O)[nH]c3=O)C[C@@H]2OP(=O)(O)OC[C@H]2O[C@@H](n3cnc4c(=O)[nH]c(N)nc43)[C@H](O)[C@@H]2OP(=O)(O)OC[C@H]2O[C@@H](n3cc(C)c(=O)[nH]c3=O)C[C@@H]2OP(=O)(O)OC[C@H]2O[C@@H](n3cnc4c(=O)[nH]c(N)nc43)[C@H](O)[C@@H]2OP(=O)(O)OC[C@H]2O[C@@H](n3cnc4c(=O)[nH]c(N)nc43)[C@H](O)[C@@H]2OP(=O)(O)OC[C@H]2O[C@@H](n3cc(C)c(=O)[nH]c3=O)C[C@@H]2OP(=O)(O)OC[C@H]2O[C@@H](n3cc(C)c(=O)[nH]c3=O)C[C@@H]2OP(=O)(O)OC[C@H]2O[C@@H](n3cnc4c(=O)[nH]c(N)nc43)[C@H](O)[C@@H]2OP(=O)(O)OC[C@H]2O[C@@H](n3cnc4c(=O)[nH]c(N)nc43)[C@H](O)[C@@H]2O)COP(=O)(O)O[C@H]2[C@@H](O)[C@H](n3cnc4c(=O)[nH]c(N)nc43)O[C@@H]2COP(=O)(O)O[C@H]2[C@@H](O)[C@H](n3cnc4c(=O)[nH]c(N)nc43)O[C@@H]2CO)c(=O)[nH]c1=O (stereo partly specified)
- Activity (Plasma [1]): 35.15 s
- Activity (Plasma [2]): 14.3 s
- Activity [3]: 238 nM

SMILES: Cc1cn([C@H]2C[C@H](OP(=O)(O)OC[C@H]3O[C@@H](n4cnc5c(=O)[nH]c(N)nc54)[C@H](O)[C@@H]3OP(=O)(O)OC[C@H]3O[C@@H](n4cnc5c(=O)[nH]c(N)nc54)[C@H](O)[C@@H]3OP(=O)(O)OC[C@H]3O[C@@H](n4cc(C)c(=O)[nH]c4=O)C[C@@H]3OP(=O)(O)OC[C@H]3O[C@@H](n4cc(C)c(=O)[nH]c4=O)C[C@@H]3OP(=O)(O)OC[C@H]3O[C@@H](n4cnc5c(=O)[nH]c(N)nc54)[C@H](O)[C@@H]3OP(=O)(O)OC[C@H]3O[C@@H](n4cnc5c(=O)[nH]c(N)nc54)[C@H](O)[C@@H]3O)[C@@H](COP(=O)(O)O[C@H]3[C@@H](O)[C@H](n4cnc5c(=O)[nH]c(N)nc54)O[C@@H]3COP(=O)(O)O[C@H]3C[C@H](n4cc(C)c(=O)[nH]c4=O)O[C@@H]3COP(=O)(O)O[C@H]3[C@@H](O)[C@H](n4cnc5c(=O)[nH]c(N)nc54)O[C@@H]3COP(=O)(O)O[C@H]3[C@@H](O)[C@H](n4cnc5c(=O)[nH]c(N)nc54)O[C@@H]3COP(=O)(O)O[C@H]3C[C@H](n4cc(C)c(=O)[nH]c4=O)O[C@@H]3COP(=O)(O)O[C@H]3C[C@H](n4cc(C)c(=O)[nH]c4=O)O[C@@H]3COP(=O)(O)O[C@H]3[C@@H](O)[C@H](n4cnc5c(=O)[nH]c(N)nc54)O[C@@H]3COP(=O)(O)O[C@H]3[C@@H](O)[C@H](n4cnc5c(=O)[nH]c(N)nc54)O[C@@H]3CO)O2)c(=O)[nH]c1=O [THROMBIN APTAMER]
- Activity (Plasma [1]): 53.68 s
- Activity (Plasma [2]): 22.6 s
- Activity [3]: 175 nM

SMILES: Cc1cn(CC(C)(COP(=O)(O)OC[C@H]2O[C@@H](n3cnc4c(=O)[nH]c(N)nc43)[C@H](O)[C@@H]2OP(=O)(O)OC[C@H]2O[C@@H](n3cc(C)c(=O)[nH]c3=O)C[C@@H]2OP(=O)(O)OC[C@H]2O[C@@H](n3cnc4c(=O)[nH]c(N)nc43)[C@H](O)[C@@H]2OP(=O)(O)OC[C@H]2O[C@@H](n3cnc4c(=O)[nH]c(N)nc43)[C@H](O)[C@@H]2OP(=O)(O)OC[C@H]2O[C@@H](n3cc(C)c(=O)[nH]c3=O)C[C@@H]2OP(=O)(O)OC[C@H]2O[C@@H](n3cc(C)c(=O)[nH]c3=O)C[C@@H]2OP(=O)(O)OC[C@H]2O[C@@H](n3cnc4c(=O)[nH]c(N)nc43)[C@H](O)[C@@H]2OP(=O)(O)OC[C@H]2O[C@@H](n3cnc4c(=O)[nH]c(N)nc43)[C@H](O)[C@@H]2O)COP(=O)(O)O[C@H]2[C@@H](O)[C@H](n3cnc4c(=O)[nH]c(N)nc43)O[C@@H]2COP(=O)(O)O[C@H]2[C@@H](O)[C@H](n3cnc4c(=O)[nH]c(N)nc43)O[C@@H]2COP(=O)(O)O[C@H]2C[C@H](n3cc(C)c(=O)[nH]c3=O)O[C@@H]2COP(=O)(O)O[C@H]2C[C@H](n3cc(C)c(=O)[nH]c3=O)O[C@@H]2COP(=O)(O)O[C@H]2[C@@H](O)[C@H](n3cnc4c(=O)[nH]c(N)nc43)O[C@@H]2COP(=O)(O)O[C@H]2[C@@H](O)[C@H](n3cnc4c(=O)[nH]c(N)nc43)O[C@@H]2CO)c(=O)[nH]c1=O (stereo partly specified)
- Activity (Plasma [1]): 60.2 s
- Activity (Plasma [2]): 24.67 s
- Activity [3]: 70 nM

SMILES: Cc1cn(CC(C)(COP(=O)(O)OC[C@H]2O[C@@H](n3cnc4c(=O)[nH]c(N)nc43)[C@H](O)[C@@H]2OP(=O)(O)OC[C@H]2O[C@@H](n3cnc4c(=O)[nH]c(N)nc43)[C@H](O)[C@@H]2OP(=O)(O)OC[C@H]2O[C@@H](n3cc(C)c(=O)[nH]c3=O)C[C@@H]2OP(=O)(O)OC[C@H]2O[C@@H](n3cc(C)c(=O)[nH]c3=O)C[C@@H]2OP(=O)(O)OC[C@H]2O[C@@H](n3cnc4c(=O)[nH]c(N)nc43)[C@H](O)[C@@H]2OP(=O)(O)OC[C@H]2O[C@@H](n3cnc4c(=O)[nH]c(N)nc43)[C@H](O)[C@@H]2O)COP(=O)(O)O[C@H]2[C@@H](O)[C@H](n3cnc4c(=O)[nH]c(N)nc43)O[C@@H]2COP(=O)(O)O[C@H]2C[C@H](n3cc(C)c(=O)[nH]c3=O)O[C@@H]2COP(=O)(O)O[C@H]2[C@@H](O)[C@H](n3cnc4c(=O)[nH]c(N)nc43)O[C@@H]2COP(=O)(O)O[C@H]2[C@@H](O)[C@H](n3cnc4c(=O)[nH]c(N)nc43)O[C@@H]2COP(=O)(O)O[C@H]2C[C@H](n3cc(C)c(=O)[nH]c3=O)O[C@@H]2COP(=O)(O)O[C@H]2C[C@H](n3cc(C)c(=O)[nH]c3=O)O[C@@H]2COP(=O)(O)O[C@H]2[C@@H](O)[C@H](n3cnc4c(=O)[nH]c(N)nc43)O[C@@H]2COP(=O)(O)O[C@H]2[C@@H](O)[C@H](n3cnc4c(=O)[nH]c(N)nc43)O[C@@H]2CO)c(=O)[nH]c1=O (stereo partly specified)
- Activity (Plasma [1]): 34.65 s
- Activity (Plasma [2]): 13.23 s
- Activity [3]: 210 nM

SMILES: Cc1cn(CC(C)(COP(=O)(O)OC[C@H]2O[C@@H](n3cnc4c(=O)[nH]c(N)nc43)[C@H](O)[C@@H]2OP(=O)(O)OC[C@H]2O[C@@H](n3cnc4c(=O)[nH]c(N)nc43)[C@H](O)[C@@H]2O)COP(=O)(O)O[C@H]2C[C@H](n3cc(C)c(=O)[nH]c3=O)O[C@@H]2COP(=O)(O)O[C@H]2[C@@H](O)[C@H](n3cnc4c(=O)[nH]c(N)nc43)O[C@@H]2COP(=O)(O)O[C@H]2[C@@H](O)[C@H](n3cnc4c(=O)[nH]c(N)nc43)O[C@@H]2COP(=O)(O)O[C@H]2C[C@H](n3cc(C)c(=O)[nH]c3=O)O[C@@H]2COP(=O)(O)O[C@H]2[C@@H](O)[C@H](n3cnc4c(=O)[nH]c(N)nc43)O[C@@H]2COP(=O)(O)O[C@H]2C[C@H](n3cc(C)c(=O)[nH]c3=O)O[C@@H]2COP(=O)(O)O[C@H]2[C@@H](O)[C@H](n3cnc4c(=O)[nH]c(N)nc43)O[C@@H]2COP(=O)(O)O[C@H]2[C@@H](O)[C@H](n3cnc4c(=O)[nH]c(N)nc43)O[C@@H]2COP(=O)(O)O[C@H]2C[C@H](n3cc(C)c(=O)[nH]c3=O)O[C@@H]2COP(=O)(O)O[C@H]2C[C@H](n3cc(C)c(=O)[nH]c3=O)O[C@@H]2COP(=O)(O)O[C@H]2[C@@H](O)[C@H](n3cnc4c(=O)[nH]c(N)nc43)O[C@@H]2COP(=O)(O)O[C@H]2[C@@H](O)[C@H](n3cnc4c(=O)[nH]c(N)nc43)O[C@@H]2CO)c(=O)[nH]c1=O (stereo partly specified)
- Activity (Plasma [1]): 46.97 s
- Activity (Plasma [2]): 17.5 s
- Activity [3]: 100 nM

SMILES: Cc1cn(CC(C)(COP(=O)(O)OC[C@H]2O[C@@H](n3cnc4c(=O)[nH]c(N)nc43)[C@H](O)[C@@H]2OP(=O)(O)OC[C@H]2O[C@@H](n3cnc4c(=O)[nH]c(N)nc43)[C@H](O)[C@@H]2OP(=O)(O)OC[C@H]2O[C@@H](n3cc(C)c(=O)[nH]c3=O)C[C@@H]2OP(=O)(O)OC[C@H]2O[C@@H](n3cnc4c(=O)[nH]c(N)nc43)[C@H](O)[C@@H]2OP(=O)(O)OC[C@H]2O[C@@H](n3cc(C)c(=O)[nH]c3=O)C[C@@H]2OP(=O)(O)OC[C@H]2O[C@@H](n3cnc4c(=O)[nH]c(N)nc43)[C@H](O)[C@@H]2OP(=O)(O)OC[C@H]2O[C@@H](n3cnc4c(=O)[nH]c(N)nc43)[C@H](O)[C@@H]2OP(=O)(O)OC[C@H]2O[C@@H](n3cc(C)c(=O)[nH]c3=O)C[C@@H]2OP(=O)(O)OC[C@H]2O[C@@H](n3cc(C)c(=O)[nH]c3=O)C[C@@H]2OP(=O)(O)OC[C@H]2O[C@@H](n3cnc4c(=O)[nH]c(N)nc43)[C@H](O)[C@@H]2OP(=O)(O)OC[C@H]2O[C@@H](n3cnc4c(=O)[nH]c(N)nc43)[C@H](O)[C@@H]2O)COP(=O)(O)O[C@H]2C[C@H](n3cc(C)c(=O)[nH]c3=O)O[C@@H]2COP(=O)(O)O[C@H]2[C@@H](O)[C@H](n3cnc4c(=O)[nH]c(N)nc43)O[C@@H]2COP(=O)(O)O[C@H]2[C@@H](O)[C@H](n3cnc4c(=O)[nH]c(N)nc43)O[C@@H]2CO)c(=O)[nH]c1=O (stereo partly specified)
- Activity (Plasma [1]): 32.28 s
- Activity (Plasma [2]): 14.5 s
- Activity [3]: 250 nM

SMILES: Cc1cn(CC(C)(COP(=O)(O)OC[C@H]2O[C@@H](n3cc(C)c(=O)[nH]c3=O)C[C@@H]2OP(=O)(O)OC[C@H]2O[C@@H](n3cnc4c(=O)[nH]c(N)nc43)[C@H](O)[C@@H]2OP(=O)(O)OC[C@H]2O[C@@H](n3cnc4c(=O)[nH]c(N)nc43)[C@H](O)[C@@H]2O)COP(=O)(O)O[C@H]2[C@@H](O)[C@H](n3cnc4c(=O)[nH]c(N)nc43)O[C@@H]2COP(=O)(O)O[C@H]2[C@@H](O)[C@H](n3cnc4c(=O)[nH]c(N)nc43)O[C@@H]2COP(=O)(O)O[C@H]2C[C@H](n3cc(C)c(=O)[nH]c3=O)O[C@@H]2COP(=O)(O)O[C@H]2[C@@H](O)[C@H](n3cnc4c(=O)[nH]c(N)nc43)O[C@@H]2COP(=O)(O)O[C@H]2C[C@H](n3cc(C)c(=O)[nH]c3=O)O[C@@H]2COP(=O)(O)O[C@H]2[C@@H](O)[C@H](n3cnc4c(=O)[nH]c(N)nc43)O[C@@H]2COP(=O)(O)O[C@H]2[C@@H](O)[C@H](n3cnc4c(=O)[nH]c(N)nc43)O[C@@H]2COP(=O)(O)O[C@H]2C[C@H](n3cc(C)c(=O)[nH]c3=O)O[C@@H]2COP(=O)(O)O[C@H]2C[C@H](n3cc(C)c(=O)[nH]c3=O)O[C@@H]2COP(=O)(O)O[C@H]2[C@@H](O)[C@H](n3cnc4c(=O)[nH]c(N)nc43)O[C@@H]2COP(=O)(O)O[C@H]2[C@@H](O)[C@H](n3cnc4c(=O)[nH]c(N)nc43)O[C@@H]2CO)c(=O)[nH]c1=O (stereo partly specified)
- Activity (Plasma [1]): 44.83 s
- Activity (Plasma [2]): 18.07 s
- Activity [3]: 78 nM
